Experimental data from BigSolDB 2.1.

Clc1ncnc2[nH]ccc12
solubility (mole fraction)
Details	278.15 K	283.15 K	288.15 K	293.15 K	298.15 K	303.15 K	308.15 K	313.15 K	318.15 K	323.15 K
in THF	0.0461	0.0501	0.0544	0.0594	0.0644	0.0699	0.0757	0.0818	0.0881	0.0954
in acetone	0.0146	0.0165	0.0187	0.021	0.0238	0.0265	0.0296	0.0331	0.0368	0.0409
in acetonitrile	0.00218	0.00277	0.00338	0.00413	0.00502	0.00615	0.00736	0.00881	0.0104	0.0124
in ethanol	0.00849	0.0098	0.0113	0.0131	0.0151	0.0174	0.0199	0.0225	0.0256	0.0291
in ethyl acetate	0.0132	0.0151	0.0172	0.0194	0.0218	0.0246	0.0274	0.0307	0.034	0.0376
in isopropanol	0.00973	0.0113	0.0131	0.0151	0.0174	0.0198	0.0226	0.0258	0.0291	0.0328
in methanol	0.0065	0.00781	0.0093	0.011	0.013	0.0152	0.0177	0.0205	0.0236	0.0272
in n-butanol	0.0122	0.0139	0.0157	0.0179	0.0202	0.0227	0.0254	0.0285	0.0317	0.0354
in n-heptane	0.000583	0.00075	0.00095	0.0012	0.0015	0.00187	0.00229	0.00281	0.00343	0.00415
in n-hexane	0.000393	0.000511	0.000652	0.000851	0.00106	0.00132	0.00165	0.00202	0.0025	0.00306
in n-propanol	0.0098	0.0114	0.0134	0.0155	0.018	0.0205	0.0235	0.0269	0.0305	0.0347
in toluene	0.000808	0.000993	0.00124	0.00153	0.00186	0.00225	0.00272	0.00324	0.00387	0.00461
